Test results as given in paper PMC7268545, “Development of a QPatch-Automated Electrophysiology Assay for Identifying TMEM16A Small-Molecule Inhibitors” (Assay and Drug Development Technologies, 2020).
Read-outs that look alike come from different tables or passages of the source.

Target: T1, human ANO1 channel (isoform acd) (Homo sapiens, UniProt Q5XXA6)
T1 construct: host or cells: HEK293T
T1 sequence (Q5XXA6 1-986): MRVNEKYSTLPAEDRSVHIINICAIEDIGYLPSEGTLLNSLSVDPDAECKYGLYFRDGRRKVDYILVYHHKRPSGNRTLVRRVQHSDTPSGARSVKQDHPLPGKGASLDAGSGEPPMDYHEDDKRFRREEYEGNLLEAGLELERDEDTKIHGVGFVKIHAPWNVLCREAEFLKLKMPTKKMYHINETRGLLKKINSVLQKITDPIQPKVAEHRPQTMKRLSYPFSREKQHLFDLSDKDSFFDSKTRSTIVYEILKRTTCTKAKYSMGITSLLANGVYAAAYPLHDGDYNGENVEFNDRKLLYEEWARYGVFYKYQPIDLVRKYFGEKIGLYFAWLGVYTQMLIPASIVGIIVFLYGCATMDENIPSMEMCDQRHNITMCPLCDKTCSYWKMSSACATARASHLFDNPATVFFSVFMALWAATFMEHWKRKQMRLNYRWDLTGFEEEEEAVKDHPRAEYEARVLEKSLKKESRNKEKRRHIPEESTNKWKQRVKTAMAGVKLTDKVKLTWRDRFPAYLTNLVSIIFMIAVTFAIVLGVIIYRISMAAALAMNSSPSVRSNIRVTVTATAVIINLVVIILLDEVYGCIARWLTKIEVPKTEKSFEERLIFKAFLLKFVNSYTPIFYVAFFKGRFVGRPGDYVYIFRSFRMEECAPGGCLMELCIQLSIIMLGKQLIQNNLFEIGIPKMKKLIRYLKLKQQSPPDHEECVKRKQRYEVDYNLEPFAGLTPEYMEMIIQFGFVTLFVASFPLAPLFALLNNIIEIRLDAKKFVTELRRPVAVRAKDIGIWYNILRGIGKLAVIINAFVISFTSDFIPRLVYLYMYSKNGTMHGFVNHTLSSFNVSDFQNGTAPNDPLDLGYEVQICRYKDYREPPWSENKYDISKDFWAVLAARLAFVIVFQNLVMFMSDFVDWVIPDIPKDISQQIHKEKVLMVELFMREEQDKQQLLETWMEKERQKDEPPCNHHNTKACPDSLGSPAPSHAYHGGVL
Assay: QPatch-48 single-concentration/multiple-addition (extended incubation) protocol
Assay type: cell-based
Experimental: As mentioned, due to the nature of the channel and its rundown issues, time limitations exist for recording. Therefore, each concentration of compound is added to the cell for a duration of 60 s. It is possible that the IC50 is shifted for those compounds that require a longer time to act on the channel. To account for this, a single-concentration/multiple-addition protocol was established (Fig. 6). […] This led us to wonder if we were missing the full response to the concentration before the next liquid period began and the more concentrated, cumulative addition was applied to the cell. The original application protocol was amended to allow for two 4-min incubations with the same concentration of compound. The total length of the assay is roughly 15 min, with two 1-min saline additions to stabilize current, two 1-min vehicle additions to account for any DMSO effects, and two 4-min compound additions, ending with two 1-min saline additions to look for washout effects. The same IV voltage protocol was used as well as the same whole-cell conditions and solutions. When niclosamide was run with this extended incubation protocol, the IC50 was four times as potent (Fig. 6), aligning nicely with the other in-house assays that were run. A DMSO condition was included to account for any rundown that occurred, with the result of 92% current remaining at the end of the assay. Therefore, the block observed with niclosamide additions was not due to rundown. When 240 nM was added, the current plateaued at ∼60% current amplitude. […] Any compounds that result in partial inhibition with the original assay can be run on the multiple-addition assay to see if they require more time to inhibit the channel.
Fig. 6. Current time plots of the modified protocol with multiple additions of a single concentration. Top: IT plot when 240 nM niclosamide is added to a cell. Bottom: IT plot when 1.2 μM niclosamide is added to a cell.

O=C(Nc1ccc([N+](=O)[O-])cc1Cl)c1cc(Cl)ccc1O [Niclosamide]
current amplitude at plateau (240 nM): ~60%
block in current after first 4-min incubation (1.2 μM, after first addition): 50%
final block after second addition (1.2 μM, after second 4-min addition): 78%
IC50 (Fig. 6 table in picture, read-out: IC50, Single Concentration- Multiple Additions): 0.352 µM
IC50 (single concentration, multiple additions, Fig. 6 curve, read-out: IC50, modified single-concentration assay): 0.352 µM
IC50 (two 4-min additions of the same concentration, n = 2, read-out: final IC50 (mean ± SD)): 0.221 ± 0.185 µM
